Values quoted from earlier work in patent EP1854876A2, “Genetically engineered glutaminase and its use in antiviral and anticancer therapy” (ME MEDICAL ENZYMES AG, priority 1992, dated 1994).

Experiments:
[1] = tested on: E. coli asparaginase, ineffective form; settings: substrate not given
[2] = target: E. coli glutaminase B (Escherichia coli, UniProt P0A6W0); settings: described as high; substrate not given
[3] = tested on: known mammalian glutaminase enzymes; settings: described as high; substrate not given
[4] = target: E. coli glutaminase A (Escherichia coli, UniProt P77454); settings: described as high; substrate not given
Sequence of E. coli glutaminase A (P77454 whole entry): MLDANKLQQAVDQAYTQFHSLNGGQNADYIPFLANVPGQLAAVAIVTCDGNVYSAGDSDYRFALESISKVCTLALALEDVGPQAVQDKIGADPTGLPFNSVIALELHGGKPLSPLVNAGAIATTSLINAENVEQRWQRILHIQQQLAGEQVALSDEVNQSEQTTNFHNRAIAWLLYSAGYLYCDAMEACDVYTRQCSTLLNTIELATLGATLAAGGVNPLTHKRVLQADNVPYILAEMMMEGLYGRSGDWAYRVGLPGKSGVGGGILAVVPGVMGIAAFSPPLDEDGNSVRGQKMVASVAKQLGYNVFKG

[5] = target: Pseudomonas 7A glutaminase-asparaginase (Pseudomonas sp., UniProt P10182); settings: described as low
Sequence of Pseudomonas 7A glutaminase-asparaginase (P10182 whole entry): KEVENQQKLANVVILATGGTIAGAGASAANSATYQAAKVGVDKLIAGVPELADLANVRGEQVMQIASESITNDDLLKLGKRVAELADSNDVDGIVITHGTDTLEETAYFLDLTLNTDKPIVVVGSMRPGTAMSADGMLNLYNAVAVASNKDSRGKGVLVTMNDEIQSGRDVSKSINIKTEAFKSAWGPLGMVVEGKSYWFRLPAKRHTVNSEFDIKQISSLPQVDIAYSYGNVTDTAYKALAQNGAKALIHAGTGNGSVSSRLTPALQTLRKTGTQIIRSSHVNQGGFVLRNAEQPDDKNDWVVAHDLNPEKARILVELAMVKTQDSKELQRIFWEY

Sequence of E. coli glutaminase B (P0A6W0 whole entry): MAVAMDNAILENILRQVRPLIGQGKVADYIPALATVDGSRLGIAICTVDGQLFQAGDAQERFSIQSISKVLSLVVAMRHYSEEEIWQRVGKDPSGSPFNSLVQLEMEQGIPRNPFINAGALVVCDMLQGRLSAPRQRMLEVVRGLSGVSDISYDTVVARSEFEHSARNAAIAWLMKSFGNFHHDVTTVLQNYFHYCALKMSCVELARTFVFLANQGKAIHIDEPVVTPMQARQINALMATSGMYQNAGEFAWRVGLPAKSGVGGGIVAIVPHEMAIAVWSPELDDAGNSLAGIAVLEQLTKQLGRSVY

SMILES	Km [1]	KM [2]	KM [3]	KM [4]	KM for glutamine [5]
NC(=O)C[C@H](N)C(=O)O [asparagine]	> 1 mM	–	–	–	–
NC(=O)CC[C@H](N)C(=O)O [glutamine]	–	millimolar range	millimolar range	millimolar range	micromolar range
